The values that follow come from patent EP2955182A1, “Pyridazinones for the treatment of cancer” (Max-Planck-Gesellschaft zur Förderung der Wissenschaften …, priority 2014, dated 2015).

Where two headings read alike, the source gives them in different places. A value given as a limit tells only on which side of the number the result lay.

In one experiment the target is PDEδ (Homo sapiens, UniProt O43924). Nature of the experiment: Fluorescence polarization competition binding assay (displacement titration of labeled Atorvastatin-probe). From the text:
Example C.2: Displacement titrations of labeled Atorvastatin-probe for the determination of KD values:
Table 3. KD values for compounds of general formula (I) as determined by means of fluorescence polarization assay
Background: Fluorescence polarisation rises when a labelled molecule tumbles more slowly, as on binding a larger partner.

The next experiment concerns BxPC-3. Put plainly: Real time cell analysis (RTCA) impedance proliferation measurement. The experiment is classed as cell-based. Particulars: administered 24 hours after seeding, monitored up to 100 hours.
The test system of a further experiment is Panc-Tu-I. The description is as above.
Setting [1] is: fluorescence polarization assay, displacement of fluorescent-tagged Atorvastatin analog from PDEδ, read-out: KD.

Regarding `COc1ccccc1CNC(=O)CCCn1nc(C)c2c(C)n(-c3ccccc3)nc2c1=O` [Compound 34, 4-(3,4-dimethyl-7-oxo-2-phenyl-2H-pyrazolo[3,4-d]pyridazin-6(7H)-yl)-N-(2-methoxybenzyl)butanamide], on PDEδ (setting [1]), the Kd (usually the constant that tells how readily two partners part at equilibrium) was in the range of 30 to 100 nM.

For `Cc1ccc(CNC(=O)CCCn2nc(C)c3c(C)n(-c4ccccc4)nc3c2=O)cc1` [Compound 35, 4-(3,4-dimethyl-7-oxo-2-phenyl-2H-pyrazolo[3,4-d]pyridazin-6(7H)-yl)-N-(4-methylbenzyl)butanamide], the Kd at PDEδ (setting [1]) was in the range of 30 to 100 nM.

Turning to `Cc1nn(CCCC(=O)NCCc2ccccc2)c(=O)c2nn(-c3ccccc3)c(C)c12` [Compound 36, 4-(3,4-dimethyl-7-oxo-2-phenyl-2H-pyrazolo[3,4-d]pyridazin-6(7H)-yl)-N-phenethylbutanamide], the Kd on PDEδ (setting [1]) was below 30 nM.

Turning to `Cc1ccc(CCNC(=O)CCCn2nc(C)c3c(C)n(-c4ccccc4)nc3c2=O)cc1` [Compound 37, 4-(3,4-dimethyl-7-oxo-2-phenyl-2H-pyrazolo[3,4-d]pyridazin-6(7H)-yl)-N-(4-methylphenethyl)butanamide], on PDEδ (setting [1]), the Kd is below 30 nM.

Take `Cc1ccc(-n2nc3c(=O)n(CCCC(=O)NCc4ccco4)nc(C)c3c2C)cc1` [Compound 38, 4-(3,4-dimethyl-7-oxo-2-(p-tolyl)-2H-pyrazolo[3,4-d]pyridazin-6(7H)-yl)-N-(furan-2-ylmethyl)butanamide]: the Kd at PDEδ (setting [1]) lay within 30 to 100 nM.

For `Cc1ccc(-n2nc3c(=O)n(CCCC(=O)NCC4CCCO4)nc(C)c3c2C)cc1` (stereo not shown) [Compound 39, 4-(3,4-dimethyl-7-oxo-2-(p-tolyl)-2H-pyrazolo[3,4-d]pyridazin-6(7H)-yl)-N-((tetrahydrofuran-2-yl)methyl)butanamide], on PDEδ (setting [1]), the Kd was 30 to 100 nM.

Regarding `Cc1ccc(-n2nc3c(=O)n(CCCC(=O)NCc4ccccn4)nc(C)c3c2C)cc1` [Compound 40, 4-(3,4-dimethyl-7-oxo-2-(p-tolyl)-2H-pyrazolo[3,4-d]pyridazin-6(7H)-yl)-N-(pyridin-2-ylmethyl)butanamide], the Kd at PDEδ (setting [1]) was 100 to 1000 nM.

As to `Cc1ccc(-n2nc3c(=O)n(CCCC(=O)NCc4cccnc4)nc(C)c3c2C)cc1` [Compound 41, 4-(3,4-dimethyl-7-oxo-2-(p-tolyl)-2H-pyrazolo[3,4-d]pyridazin-6(7H)-yl)-N-(pyridin-3-ylmethyl)butanamide], the Kd on PDEδ (setting [1]) was in the range of 100 to 1000 nM.

In turn, `Cc1ccc(-n2nc3c(=O)n(CCCC(=O)NCc4ccccc4)nc(C)c3c2C)cc1` [Compound 42] returned a Kd at PDEδ below 30 nM.

On to `COc1ccc(CNC(=O)CCCn2nc(C)c3c(C)n(-c4ccc(C)cc4)nc3c2=O)cc1` [Compound 43, 4-(3,4-dimethyl-7-oxo-2-(p-tolyl)-2H-pyrazolo[3,4-d]pyridazin-6(7H)-yl)-N-(4-methoxybenzyl)butanamide], for which, on PDEδ (setting [1]), the Kd was below 30 nM.

With `Cc1ccc(CNC(=O)CCCn2nc(C)c3c(C)n(-c4ccc(C)cc4)nc3c2=O)cc1` [Compound 44, 4-(3,4-dimethyl-7-oxo-2-(p-tolyl)-2H-pyrazolo[3,4-d]pyridazin-6(7H)-yl)-N-(4-methylbenzyl)butanamide], the Kd on PDEδ (setting [1]) is below 30 nM.

On to `Cc1ccc(-n2nc3c(=O)n(CCCC(=O)NCc4ccc(OC(C)C)cc4)nc(C)c3c2C)cc1` [Compound 45], for which the Kd at PDEδ (setting [1]) is below 30 nM.

For `Cc1ccc(-n2nc3c(=O)n(CCCC(=O)NCCc4ccccc4)nc(C)c3c2C)cc1` [Compound 46, 4-(3,4-dimethyl-7-oxo-2-(p-tolyl)-2H-pyrazolo[3,4-d]pyridazin-6(7H)-yl)-N-phenethylbutanamide], the Kd on PDEδ (setting [1]) is below 30 nM.

As for `Cc1ccc(CCNC(=O)CCCn2nc(C)c3c(C)n(-c4ccc(C)cc4)nc3c2=O)cc1` [Compound 47, 4-(3,4-dimethyl-7-oxo-2-(p-tolyl)-2H-pyrazolo[3,4-d]pyridazin-6(7H)-yl)-N-(4-methylphenethyl)butanamide], the Kd on PDEδ (setting [1]) was below 30 nM.

For the compound `Cc1ccc(-n2nc3c(=O)n(CCCC(=O)NCCc4ccc(Cl)cc4)nc(C)c3c2C)cc1` [Compound 48, N-(4-chlorophenethyl)-4-(3,4-dimethyl-7-oxo-2-(p-tolyl)-2H-pyrazolo[3,4-d]pyridazin-6(7H)-yl)butanamide], the equilibrium dissociation constant (Kd) on PDEδ (setting [1]) was below 30 nM.

For the compound `Cc1ccc(-n2nc3c(=O)n(CCCC(=O)NCCc4cccc(Cl)c4)nc(C)c3c2C)cc1` [Compound 49, N-(3-chlorophenethyl)-4-(3,4-dimethyl-7-oxo-2-(p-tolyl)-2H-pyrazolo[3,4-d]pyridazin-6(7H)-yl)butanamide], the Kd on PDEδ (setting [1]) was below 30 nM.

On to `Cc1ccc(-n2nc3c(=O)n(CCCC(=O)NCC(C)c4ccccc4)nc(C)c3c2C)cc1` (stereo not shown) [Compound 50, 4-(3,4-dimethyl-7-oxo-2-(p-tolyl)-2H-pyrazolo[3,4-d]pyridazin-6(7H)-yl)-N-(2-phenylpropyl)butanamide], for which the “proliferation of K-Ras dependent cells” value in the experiment with BxPC-3 is “inhibits the proliferation”; in the experiment on Panc-Tu-I (Panc-Tu-I, administered 24 hours after seeding, monitored up to 100 hours) it was “inhibits the proliferation”. Further, the cell death entry with Panc-Tu-I (Panc-Tu-I (Figure 6f), after a certain time) is recorded as “leading after a certain time to cell death”.

`Cc1ccc(-n2nc3c(=O)n(CCCC(=O)NC4CC4)nc(C)c3c2C)cc1` [Compound 51, N-cyclopropyl-4-(3,4-dimethyl-7-oxo-2-(p-tolyl)-2H-pyrazolo[3,4-d]pyridazin-6(7H)-yl)butanamide]: the Kd on PDEδ (setting [1]) lay in the range of 100 to 1000 nM.

Consider `Cc1ccc(-n2nc3c(=O)n(CCCC(=O)NC4CCCC4)nc(C)c3c2C)cc1` [Compound 52, N-cyclopentyl-4-(3,4-dimethyl-7-oxo-2-(p-tolyl)-2H-pyrazolo[3,4-d]pyridazin-6(7H)-yl)butanamide], for which the Kd on PDEδ (setting [1]) is below 30 nM.

With `Cc1ccc(-n2nc3c(=O)n(CCCC(=O)NC4CCC(C)CC4)nc(C)c3c2C)cc1` (stereo not shown) [Compound 53, 4-(3,4-dimethyl-7-oxo-2-(p-tolyl)-2H-pyrazolo[3,4-d]pyridazin-6(7H)-yl)-N-(4-methylcyclohexyl)butanamide], the Kd on PDEδ (setting [1]) was below 30 nM.
